Measurements taken from US9023789B2, “Amylin analogs and pharmaceutical compositions thereof” (Novo Nordisk A/S, priority 2012, dated 2015).
“Also recorded” adds a separate entry of the source. Like-named read-outs stand apart in the source and are kept apart here. Bridge positions count the residues as written; N and C are the ends. Ends that are not written are not given here.

What was measured:
Male Sprague-Dawley rats = experiment: ASSAY (XI) single subcutaneous administration, food intake monitored for 48 hours in rats; assay type: in vivo, rat; settings: for Food intake red (%) 0-24 h / Food intake red (%) 24-48 h: single s.c., compared to vehicle
Source text: Assay (XI)—Effect from Single Subcutaneous Administration of Analogue on Plasma Calcium in Rats
Male Sprague-Dawley rats (Taconic Europe, ˜250 g at test date) were acclimatized to reversed day light cycle (lights on from 10 PM to 10 AM) and single housing in online food intake monitoring system (Ellegaard MBRose, Denmark) prior to study start. […] Data are illustrated in graphs as mean±SEM.

Male Wistar rats = experiment: ASSAY (XII) effect from single subcutaneous administration on plasma calcium in rats; assay type: in vivo, rat; settings: for Plasma calcium red (%) 0-12 h (maximal): single s.c., compared to vehicle
Procedure: Assay (XII)—Effect from Single Subcutaneous Administration of Analogue on Plasma Calcium in Rats
Male Wistar rats (Taconic Europe, ˜250 g at test date) were acclimatized to handling prior to the study. Rats were divided in groups of five and subcutaneously dosed with test compound at time=0. At time T=−15 min; 1 h, 2 h, 4 h, 7 h, 12 h, and 24 h a blood sample was obtained and heparin stabilized plasma was analysed for total calcium (Cobas, Hitachi). Data are illustrated in graphs as mean±SEM.

Sprague Dawley (SD) rats = experiment: ASSAY (I) efficacy testing on appetite (food intake) using an ad libitum fed rat model; assay type: in vivo; settings: rats, single subcutaneous 1000 nmol/kg injection
Source text: Sprague Dawley (SD) rats from Taconic Europe, Denmark are used for the experiments. The rats have a body weight 200-250 g at the start of experiment. The rats arrive at least 10-14 days before start of experiment to allow acclimatization to experimental settings. During this period the animals are handled at least 2 times. After arrival rats are housed individually for one week in a reversed light/dark phase (meaning that lights are off during daytime and on during nighttime) for two weeks. Since rats are normally active and eat their major part of their daily food intake during the dark period, rats are dosed in the morning right before lights are turned off. This set-up results in the lowest data variation and highst test sensitivity. The experiment is conducted in the rats' home cages and rats have free access to food and water throughout the acclimatization period and the experiment period. Each dose of derivative is tested in a group of 5-8 rats. A vehicle group of 6-8 rats is included in each set of testing. Rats are dosed once according to body weight with a 0.01-3 mg/kg solution administered intraperitoneally (ip), orally (po) or subcutaneously (sc). The time of dosing is recorded for each group. After dosing, the rats are returned to their home cages, where they then have access to food and water. The food consumption is recorded individually continuously by online registration or manually every hour for 7 hours, and then after 24 h and sometimes 48 h. At the end of the experimental session, the animals are euthanized.
The individual data are recorded in Microsoft excel sheets. Outliers are excluded after applying the Grubbs statistical evaluation test for outliers, and the result is presented graphically using the GraphPad Prism program.

[1] = system: amylin receptor / calcitonin receptor; settings: background statement, cited from earlier work

Plasma calcium red (%) 0-12 h (maximal) (Male Wistar rats; 3 nmol/kg) [%] | Plasma calcium red (%) 0-12 h (maximal) (Male Wistar rats; 30 nmol/kg) [%] | Molecule | Food intake red (%) 0-24 h (Male Sprague-Dawley rats; 30 nmol/kg) [%] | Food intake red (%) 24-48 h (Male Sprague-Dawley rats; 30 nmol/kg) [%] | food intake monitored over 48 hours (Male Sprague-Dawley rats; single subcutaneous administration, 30 nmol/kg, versus vehicle) | plasma calcium (Male Wistar rats; dose 30 nmol/kg) | reduction of food intake (Sprague Dawley (SD) rats) [%] | Food intake red (%) 0-24 h (Male Sprague-Dawley rats; 1000 nmol/kg) [%] | Food intake red (%) 24-48 h (Male Sprague-Dawley rats; 1000 nmol/kg) [%] | Plasma calcium red (%) 0-12 h (maximal) (Male Wistar rats; 1000 nmol/kg) [%] | potency on the amylin receptor relative to the calcitonin receptor [1] | potency on the amylin receptor relative to the calcitonin receptor ([1]; listed as pramlintide) [times]
35 | 39 | CC(C)C[C@H](NC(=O)[C@H](CCCCN)NC(=O)CNC(=O)[C@H](CC(C)C)NC(=O)[C@@H](NC(=O)[C@@H]1CSSC[C@H](N)C(=O)N[C@@H](CO)C(=O)N[C@@H](CC(N)=O)C(=O)N[C@@H](CC(C)C)C(=O)N[C@@H](CO)C(=O)N[C@@H]([C@@H](C)O)C(=O)N1)C(C)C)C(=O)N[C@@H](CO)C(=O)N[C@@H](CCC(N)=O)C(=O)N[C@@H](CCC(=O)O)C(=O)N[C@@H](CC(C)C)C(=O)N[C@@H](Cc1c[nH]cn1)C(=O)N[C@@H](CCCCN)C(=O)N[C@@H](CC(C)C)C(=O)N[C@@H](CCC(N)=O)C(=O)N[C@H](C(=O)N[C@@H](Cc1ccc(O)cc1)C(=O)N1CCC[C@H]1C(=O)N[C@@H](CCCNC(=N)N)C(=O)N[C@H](C(=O)N[C@@H](CC(N)=O)C(=O)N[C@H](C(=O)NCC(=O)N[C@@H](CO)C(=O)NCC(=O)N[C@H](C(=O)N1CCC[C@H]1C(N)=O)[C@@H](C)O)[C@@H](C)O)[C@@H](C)O)[C@@H](C)O [salmon calcitonin, reference compound] | 87 | 19 | reduction of food intake; also recorded: reduces food intake | below 1.7 mM | – | – | – | – | – | –
– | – | Pramlintide (KCNTATCATQRLANFLVHSSNNFGPILPPTNVGSNTY-NH2; disulfide 2-7; UniProt P10997 34-70, looked up, variant A25P S28P S29P) [reference compound] | – | – | – | – | 25 | 25 | 0 | 28 | approximately 14 times | 14
